{"source": "patent US12643935B2", "about": "“PD-L1 binding peptides” (UNIVERSITY OF SOUTHERN CALIFORNIA, priority 2020, dated 2026)", "key": {"[1]": {"target": "T1, hPD-L1 (Homo sapiens, UniProt Q9NZQ7)", "experiment": "hPD-L1 binding of [35S]-SPAM after incubation in 25% human serum", "format": "in vitro ADME", "design": "designed from A18 to T239 with a methionine added to the N-terminus; hexahistidine tag (C); made in house", "conditions": "37° C.", "procedure": "We performed two complementary assays to determine what effect serum has on the SPAM/hPD-L1 interaction.\nIn a complementary test, SPAM was in vitro translated and [^35S]-labeled as described above. After purification as above, the [^35S]-labeled peptide-RNA fusions were incubated with DMEM media supplemented with 25% (v/v) single donor human plasma at 37° C. in triplicate for 0, 60, 120, 240 and 480 min. The binding of serum incubated peptides was then evaluated on hPD-L1 immobilized beads using 75 pmol hPD-L1 immobilized on streptavidin agarose beads (Thermo Fisher scientific) in DMEM supplemented with 25% Serum buffer and 0.02 mM biotin at 4° C. for 1 h. The supernatant was removed and was counted. The beads were subsequently washed three times with 1 mL of blocking buffer and the washes were also counted. Finally, the beads were resuspended in 1 mL of blocking buffer and were counted separately. The ratio of the counts remaining on the beads to the total counts added to the binding reaction (the sum of the counts for supernatant, washes, and beads) was calculated to determine the percent bound."}, "[2]": {"target": "T2, mouse PD-L1 (mPD-L1) (Mus musculus, UniProt Q9EP73)", "T2 construct": "The expression construct for mPD-L1 consisted of its extracellular domain (from A18 to H239) with a methionine added to the N-terminus; hexahistidine tag (C); made in house; host or cells: E. coli BL21 (DE3)", "T2 sequence (Q9EP73 with tags, fused parts or gaps)": "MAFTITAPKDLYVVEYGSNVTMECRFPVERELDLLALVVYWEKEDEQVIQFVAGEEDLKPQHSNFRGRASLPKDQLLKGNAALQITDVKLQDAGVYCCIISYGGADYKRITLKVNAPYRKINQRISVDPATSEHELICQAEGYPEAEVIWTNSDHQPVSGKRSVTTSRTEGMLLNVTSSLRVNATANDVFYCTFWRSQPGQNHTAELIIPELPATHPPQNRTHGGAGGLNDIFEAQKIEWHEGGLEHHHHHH", "experiment": "Radiolabeled [35S] peptide binding assay on mPD-L1", "conditions": "[35S]-labeled peptide", "procedure": "(§1) SPAM Peptide Selectively Binds to hPD-L1. SPAM was also tested for binding specificity towards mouse PD-L1 (mPD-L1) and human PD-L2 (hPD-L2) using radioactive binding assays. SPAM peptide mRNA was translated in vitro in the presence of [^35S]-methionine to generate [^35S]-labeled SPAM peptide.\n(§2) [^35S]-labeled peptides were translated as described above by including 2 μCi labeled methionine (Perkin Elmer) per 10 pmol of template in the translation reaction. Each peptide was tested with a […] (for X9-library derived peptides) (SEQ ID NO: 11) or a […] (for X17-library derived peptides) (SEQ ID NO: 12) C-terminal sequence. […] The supernatant was removed and was counted. The beads were subsequently washed three times with 1 mL of blocking buffer and the washes were also counted. Finally, the beads were resuspended in 1 mL of blocking buffer and were counted separately. The ratio of the counts remaining on the beads to the total counts added to the binding reaction (the sum of the counts for supernatant, washes, and beads) was calculated to determine the percent bound."}, "[3]": {"target": "T3, CHO-mPD-L1 cells which express mPD-L1 (Mus musculus, UniProt Q9EP73)", "T3 construct": "expressed in transfected cells; host or cells: CHO", "T3 sequence (Q9EP73 19-290)": "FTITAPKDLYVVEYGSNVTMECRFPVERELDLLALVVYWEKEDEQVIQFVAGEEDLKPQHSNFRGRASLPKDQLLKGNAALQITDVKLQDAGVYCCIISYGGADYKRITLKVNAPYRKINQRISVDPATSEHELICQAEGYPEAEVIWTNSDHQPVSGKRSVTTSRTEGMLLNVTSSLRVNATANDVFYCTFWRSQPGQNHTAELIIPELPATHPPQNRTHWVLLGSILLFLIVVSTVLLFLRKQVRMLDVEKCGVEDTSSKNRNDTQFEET", "experiment": "Antibody competition by flow cytometry on CHO-mPD-L1 cells", "format": "cell-based", "conditions": "pre-treatment 0-20 μM, 50 nM antibody", "procedure": "We performed similar experiments with CHO-mPD-L1 cells which express mPD-L1 to determine if this effect was specific to hPD-L1 expression. We have developed two cross-reactive anti-hPD-L1/mPD-L1 antibodies, 16373 and 16377. These antibodies were labeled with Fluorescein, titrated against CHO-hPD-L1 and CHO-mPD-L1 cells (FIG. 12B-C) and subjected to competition experiments as described above.\nThe cells were washed once with cold serum free DMEM and incubated with 1 nM FAM-Atezolizumab, 10 nM FAM-Avelumab, 50 nM FAM-16373, or 50 nM FAM-16377 in serum free DMEM at 4° C. for 30 min. Cells were then washed three times with cold serum free DMEM. Cells were subsequently processed by flow cytometry with a BD FACSCalibur system using the FL1 channel. FlowJo v10.1 was used to gate to the major population and median FL1 fluorescence reported."}, "[4]": {"target": "T1, hPD-L1", "experiment": "Radiolabeled [35S] peptide binding assay on glycosylated hPD-L1*", "design": "The hPD-L1* vector included amino acids A18-T239, an Avi Tag and a hexahistidine tag; hexahistidine tag; made in house; host or cells: Expi293F", "procedure": "as §1, §2"}, "[5]": {"experiment": "Serum stability of ROX-SPAM by HPLC", "format": "in vitro ADME", "conditions": "25% human serum, 37° C., up to five hours", "protocol": "We first tested SPAM peptide stability by performing an HPLC-based assay to test if SPAM is degraded by human serum. We incubated ROX-labeled SPAM with 25% human serum at 37° C., took aliquots at different time points, then analyzed the products using HPLC.\nAt times 0, 15, 30, 120 and 300 min, 40 μL was removed and protein precipitated by the addition of 80 μL ethanol. Samples were centrifuged for 10 min at 16,000×g and the supernatant removed for HPLC analysis. A total of 100 μL volume was injected in a HPLC gradient of 10^−95% Buffer B over 15 minutes (Buffer A: dH2O with 0.1% (v/v) TFA, Buffer B: CH3CN+0.1% (v/v) TFA). Detection was performed at 570 nm."}, "[6]": {"target": "T1, hPD-L1", "experiment": "Fluorescence polarization of ROX-labeled SPAM with hPD-L1", "format": "binding", "design": "designed from A18 to T239 with a methionine added to the N-terminus; hexahistidine tag (C); made in house", "procedure": "To evaluate the affinity of SPAM for hPD-L1 and hPD-L1*, we measured the KD by fluorescence polarization. […] The resulting values were plotted against the concentration of hPD-L1 or hPD-L1* and fit to a one-site saturation binding model with GraphPad Prism.\nA stock solution of hPD-L1 or hPD-L1* with a 5 μM starting concentration was prepared and serially diluted to concentrations ranging from 5 μM to 2.4 nM. […] The fluorescence polarization of each sample was measured on a Synergy H4 Hybrid Multi-Mode Microplate Reader. Each measurement was carried out in triplicate and the mean value was calculated. The values were fit to a one-site saturation binding model in GraphPad Prism to obtain the corresponding equilibrium dissociation constants."}}, "note": "Entries after “also recorded” stand apart in the source; their conditions may differ. Where two headings read alike, the source gives them in different places.", "data": [{"smiles": "C#CC[C@H](NC(=O)CNC(=O)[C@H](CO)NC(=O)[C@H](C)NC(=O)[C@H](Cc1ccc(O)cc1)NC(=O)[C@H](Cc1c[nH]cn1)NC(=O)[C@H](CC(C)C)NC(=O)[C@@H](NC(=O)[C@H](Cc1c[nH]c2ccccc12)NC(=O)[C@H](Cc1ccccc1)NC(=O)[C@H](CCCCN)NC(=O)[C@H](CC(N)=O)NC(=O)[C@H](CC(C)C)NC(=O)[C@@H](NC(=O)[C@H](Cc1c[nH]cn1)NC(=O)[C@H](CC(=O)O)NC(=O)[C@H](CC(C)C)NC(=O)[C@H](Cc1ccccc1)NC(=O)[C@@H](NC(=O)[C@@H]1CCCN1C(=O)[C@@H](N)CCSC)[C@@H](C)CC)[C@@H](C)CC)[C@@H](C)CC)C(N)=O", "note": "(stereo in doubt) [SPAM]", "values": [{"measurement": "loss of binding in presence of human serum", "setting": "[1]", "value": "~25", "unit": "%"}, {"measurement": "binding to immobilized hPD-L1 after serum incubation", "setting": "[1]; eight hours", "value": "no further decrease"}, {"measurement": "binding to immobilized hPD-L1 after serum incubation", "setting": "[1]; four hours", "value": "slight decrease"}, {"measurement": "binding to immobilized hPD-L1 after serum incubation", "setting": "[1]; two hours", "value": "No decrease"}, {"measurement": "binding to mPD-L1", "setting": "[2]", "value": "not pulled-down; also recorded: essentially no binding; also recorded: no significant binding"}, {"measurement": "blocking of Fluorescein-16373 and Fluorescein-16377 in CHO-mPD-L1 cells", "setting": "[3]", "value": "blocking was absent"}, {"measurement": "[35S]-labeled peptide capture by hPD-L1*", "setting": "[4]", "value": "captured"}, {"measurement": "degradation in human serum (HPLC)", "setting": "[5]", "value": "stable"}, {"measurement": "Kd", "setting": "[6]; non-glycosylated hPD-L1, T=21° C., 100 nM ROX-SPAM, read-out: dissociation constant (KD) for hPD-L1", "value": 119, "unit": "nM"}, {"measurement": "Kd", "setting": "[6]; range over glycosylated and non-glycosylated hPD-L1, read-out: KD for hPD-L1", "value": "67 to 119", "unit": "nM"}]}]}
